“And” between values parts separate entries of the source, which are not always exact repeats. Equal entries are not always repeated. Where two headings read alike, the source gives them in different places.
Legend:
α7 receptor [1] = molecular target: T1, α7 receptor (Rattus norvegicus, UniProt Q05941); test: Pre-frontal cortex slice GABA sIPSC frequency; format: cell-based; conditions: rat PFC slice
Excerpt: (§1) In membranes prepared either from cultured, human recombinant α7 receptor-expressing, human embryonic kidney cells α7-HEK) or from rat brain hippocampus, AZD0328 competed with binding of an iodinated form of the high-affinity, selective α7 receptor antagonist snake toxin, [^125I]-α-bungarotoxin (BTX) (Table 1). In Xenopus oocytes injected with human, recombinant α7 receptor mRNA, AZD0328 activates whole cell currents (Table 2). […] In acutely dissociated rat hippocampal interneurons, AZD0328 elicits rapidly activated, desensitizing whole-cell current (Table 1), consistent with the known properties of rat neuronal α7 receptors. […] AZD0328 modulates synaptic function, consistent with the well-known role of α7 receptors as heteroreceptor modulators of glutamatergic and GABAergic synaptic function.

[2] = Multiple dose PK/TK, rabbit; format: in vivo; conditions: day 18; for AUC / Cmax / Tmax: female, New Zealand White, in vivo, sc
Excerpt: (§2) This section provides a summary of the pharmacokinetic and metabolism properties of AZD0328 derived from in vivo studies. […] The derived PK/TK parameters from these studies are presented in Table 4 for single dose studies (DMR4, 0619LR, 20030191PCR, DMO16, DMB10, DMW12, 50190, 0190DD and 03.330/1), and are presented in Table 5 multiple dose PK/TK studies (DMR4, 0612AR, DMB15, 50190, 0190DD and 0295AD).

Mouse lymphoma = Mouse lymphoma test; format: cell-based
Excerpt: (§3) The genotoxic potential of AZD0328 has been evaluated in the Ames test and in the Mouse lymphoma test. AZD0328 was not mutagenic in either of these tests.

Ames test = test: Ames test
Excerpt: as §3

[3] = Single dose PK/TK, rhesus monkey; format: in vivo; conditions: for half-life: read-out: T½ (converted); for Vd: read-out: Vss
Description: Pharmacokinetic studies in rats and monkeys were used to estimate the plasma concentrations associated with doses at which AZD0328 improved cognitive performance in these species. For example, in rhesus monkeys, two studies were conducted to determine the pharmacokinetic profile of AZD0328 after administration of 0.048 and 1.7 mg per kg AZD0328. […] We thus estimated the peak plasma concentrations in monkeys that received AZD0328 at 0.00048-0.016 mg per kg to be 0.6-18 nM. Similar studies and calculations in rats, when extended to mice, led us to estimate plasma concentrations at 0.001-0.1 mg per kg body weight to be 0.29-100 nM in these species.
as §2

[4] = Single oral dose pharmacokinetics in healthy human volunteers; format: in vivo; design: AUC/dose: unit not given beside the values; conditions: for Cmax / Tmax / AUC / AUC(0-t) / half-life: human, plasma; for Cmax / AUC / AUC(0-t) / half-life / Cmax/Dose / AUC/dose / CL/F: geometric mean; for Tmax: median
Description: Total oral doses of AZD0328 in the range 0.025-0.68 mg produced mean plasma concentrations of 0.6-15 nM, consistent with the range of plasma concentrations found to be associated with improved performance in the spatial delayed response test in monkeys. Total oral doses of AZD0328 in the range 0.005-2 mg produced mean plasma concentrations of 0.17-43.9 nM, within the range of plasma concentrations found to be associated with improved performance in rodent models.

α7 receptor [5] = molecular target: T1, α7 receptor; test: Hippocampal slice GABA sIPSC frequency; format: cell-based; conditions: 5 μM
Excerpt: as §1

[6] = rabbit 2F, DMB15, subcutaneous 1.15 mg/kg (3 μmol/kg)
[7] = rabbit 3F, DMB15, subcutaneous 0.115 mg/kg (0.3 μmol/kg)
[8] = rabbit 3F, DMB15, subcutaneous 0.269 mg/kg (0.7 μmol/kg)
[9] = rabbit 3F, DMB15, subcutaneous 0.384 mg/kg (1 μmol/kg)
[10] = rabbit 3F, DMB15, subcutaneous 3.84 mg/kg (10 μmol/kg)
[11] = both sexes, in vivo, rhesus monkey 2M+2F, 03.330/1, iv 1.15 mg/kg (5.32 μmol/kg)
[12] = both sexes, in vivo, rhesus monkey 2M+2F, 03.330/1, iv 3.85 mg/kg (17.8 μmol/kg)
[13] = both sexes, plasma, im, rhesus monkey 2F+2M, A7AGBU1006, intramuscular 1.7 mg/kg (8 μmol/kg)
[14] = both sexes, plasma, rhesus monkey 2M+2F, 03.330/1, iv 0.385 mg/kg (1.78 μmol/kg)
[15] = male, plasma, im, rhesus monkey 3M, A7AGBU1010, intramuscular 0.048 mg/kg (0.22 μmol/kg)

T1 sequence (Q05941 23-502): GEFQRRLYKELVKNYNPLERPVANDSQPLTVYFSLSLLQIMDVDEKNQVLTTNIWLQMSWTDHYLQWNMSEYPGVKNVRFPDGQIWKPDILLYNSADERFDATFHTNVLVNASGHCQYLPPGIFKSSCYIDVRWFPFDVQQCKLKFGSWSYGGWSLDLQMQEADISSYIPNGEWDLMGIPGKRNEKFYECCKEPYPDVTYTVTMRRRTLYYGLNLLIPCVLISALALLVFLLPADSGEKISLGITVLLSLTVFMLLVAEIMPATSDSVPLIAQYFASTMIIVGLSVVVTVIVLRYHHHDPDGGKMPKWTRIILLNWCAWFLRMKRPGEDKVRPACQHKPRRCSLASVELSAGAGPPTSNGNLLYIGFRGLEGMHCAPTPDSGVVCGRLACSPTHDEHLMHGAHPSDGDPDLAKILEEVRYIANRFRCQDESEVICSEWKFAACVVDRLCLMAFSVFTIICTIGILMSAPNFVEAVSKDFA

SMILES: c1cnc2c(c1)C[C@@]1(CN3CCC1CC3)O2 [AZD0328, (R)-Spiro[1-azabicyclo[2.2.2]octane-3,2′(3′H)-furo[2,3-b]pyridine]]
- EC50 (α7 receptor [1]): 700 nM
- Emax (α7 receptor [1]; read-out: Maximum response, GABA sIPSC frequency): 330%
- AUC [2, 6]: 636 ng·h/mL to 846 ng·h/mL and 2.9 µM·h to 3.9 µM·h
- Cmax [2, 6]: 224 ng/mL to 296 ng/mL and 1.04 µM to 1.37 µM
- Tmax [2, 6]: 0.3 to 1 h
- AUC [2, 7]: 50.2 ng·h/mL and 0.205 µM·h
- Cmax [2, 7]: 24.7 ng/mL and 111 nM
- Tmax [2, 7]: 0.317 to 0.97 h
- AUC [2, 8]: 0.872 µM·h
- Cmax [2, 8]: 138 ng/mL and 583 nM
- Tmax [2, 8]: 0.217 to 0.483 h
- AUC [2, 9]: 232 ng·h/mL and 1.01 µM·h
- Cmax [2, 9]: 78.1 ng/mL and 317 nM
- Tmax [2, 9]: 0.25 to 2.02 h
- AUC [2, 10]: 2510 ng·h/mL and 11.6 µM·h
- Cmax [2, 10]: 677 ng/mL and 3.13 µM
- Tmax [2, 10]: 0.483 to 2.18 h
- AUC/dose [2, 6]: 0.212-0.282
- AUC/dose [2, 7]: 0.148 ± 0.038
- AUC/dose [2, 8]: 0.270 ± 0.106
- AUC/dose [2, 10]: 0.251 ± 0.129
- mutagenicity (Mouse lymphoma): not mutagenic
- mutagenicity (Ames test): not mutagenic
- half-life ([3]; both sexes, in vivo, rhesus monkey 2M+2F, 03.330/1, iv 0.385 mg/kg (1.78 μmol/kg)): 1.76 ± 0.43 h
- clearance [3, 11]: 14.2 mL/min/kg
- half-life [3, 11]: 1.96 ± 0.63 h
- Vd [3, 11]: 2.52 ± 1.64 L/kg
- clearance [3, 12]: 14.5 mL/min/kg
- half-life [3, 12]: 2.14 ± 0.39 h
- Vd [3, 12]: 2.85 ± 1.6 L/kg
- AUC [3, 13]: 634 ± 81 ng·h/mL
- Tmax [3, 13]: 0.25 h
- Cmax ([3]; both sexes, plasma, im, rhesus monkey 2F+2M, A7AGBU1006, intramuscular 1.7 mg/kg (8 μmol/kg), read-out: Cmax): 430 ng/mL and 1.99 µM
- half-life [3, 13]: 0.97 ± 0.12 h
- clearance [3, 14]: 21 mL/min/kg
- Vd [3, 14]: 3.29 ± 2.32 L/kg
- Tmax [3, 15]: 0.25 h
- Cmax ([3]; male, plasma, im, rhesus monkey 3M, A7AGBU1010, intramuscular 0.048 mg/kg (0.22 μmol/kg), read-out: Cmax): 16.1 ng/mL and 74.6 nM
- half-life [3, 15]: 0.85 ± 0.23 h
- estimated peak plasma concentrations ([3]; monkeys, 0.00048-0.016 mg per kg): 0.6 to 18 nM
- Cmax ([3]; rhesus monkey, plasma, intramuscular, 0.016 mg/kg, rhesus monkeys, read-out: Cmax at NOAEL for behavioral side effects): 18 nM
- estimated free plasma Cmax ([3]; rhesus monkeys, 0.016 mg/kg (NOAEL)): 18 nM
- Cmax ([4]; single oral dose 0.005 mg): 0.17 nM
- Tmax ([4]; single oral dose 0.005 mg): 0.8 h
- AUC ([4]; single oral dose 0.025 mg): 0.0061 µM·h
- AUC(0-t) ([4]; single oral dose 0.025 mg): 0.0046 µM·h
- Cmax ([4]; single oral dose 0.025 mg): 0.6 nM
- half-life ([4]; single oral dose 0.025 mg): 6.3 h
- Tmax ([4]; single oral dose 0.025 mg): 1.3 h
- AUC ([4]; single oral dose 0.075 mg): 0.0169 µM·h
- AUC(0-t) ([4]; single oral dose 0.075 mg): 0.0156 µM·h
- Cmax ([4]; single oral dose 0.075 mg): 2.1 nM
- half-life ([4]; single oral dose 0.075 mg): 5.9 h
- Tmax ([4]; single oral dose 0.075 mg): 1.5 h
- AUC ([4]; single oral dose 0.23 mg): 0.0652 µM·h
- AUC(0-t) ([4]; single oral dose 0.23 mg): 0.0588 µM·h
- Cmax ([4]; single oral dose 0.23 mg): 6.4 nM
- half-life ([4]; single oral dose 0.23 mg): 6.7 h
- Tmax ([4]; single oral dose 0.23 mg): 1.5 h
- AUC ([4]; single oral dose 0.68 mg): 0.144 µM·h
- AUC(0-t) ([4]; single oral dose 0.68 mg): 0.133 µM·h
- Cmax ([4]; single oral dose 0.68 mg): 15 nM
- half-life ([4]; single oral dose 0.68 mg): 6 h
- Tmax ([4]; single oral dose 0.68 mg): 2.2 h
- AUC ([4]; single oral dose 1.35 mg): 0.333 µM·h
- AUC(0-t) ([4]; single oral dose 1.35 mg): 0.3 µM·h
- Cmax ([4]; single oral dose 1.35 mg): 31 nM
- half-life ([4]; single oral dose 1.35 mg): 6.9 h
- Tmax ([4]; single oral dose 1.35 mg): 3.2 h
- AUC ([4]; single oral dose 2 mg): 0.421 µM·h
- AUC(0-t) ([4]; single oral dose 2 mg): 0.395 µM·h
- Cmax ([4]; single oral dose 2 mg): 43.9 nM
- half-life ([4]; single oral dose 2 mg): 5.6 h
- Tmax ([4]; single oral dose 2 mg): 2.5 h
- Cmax/Dose ([4]; single oral dose 0.005 mg): 0.007
- AUC/dose ([4]; single oral dose 0.025 mg): 0.053
- CL/F ([4]; single oral dose 0.025 mg): 19.0 L/h
- Cmax/Dose ([4]; single oral dose 0.025 mg): 0.006
- AUC/dose ([4]; single oral dose 0.075 mg): 0.049
- CL/F ([4]; single oral dose 0.075 mg): 20.5 L/h
- Cmax/Dose ([4]; single oral dose 0.075 mg): 0.006
- AUC/dose ([4]; single oral dose 0.23 mg): 0.061
- CL/F ([4]; single oral dose 0.23 mg): 16.3 L/h
- Cmax/Dose ([4]; single oral dose 0.23 mg): 0.006
- AUC/dose ([4]; single oral dose 0.68 mg): 0.046
- CL/F ([4]; single oral dose 0.68 mg): 21.9 L/h
- Cmax/Dose ([4]; single oral dose 0.68 mg): 0.005
- AUC/dose ([4]; single oral dose 1.35 mg): 0.054
- CL/F ([4]; single oral dose 1.35 mg): 18.7 L/h
- Cmax/Dose ([4]; single oral dose 1.35 mg): 0.005
- AUC/dose ([4]; single oral dose 2 mg): 0.046
- CL/F ([4]; single oral dose 2 mg): 22.0 L/h
- Cmax/Dose ([4]; single oral dose 2 mg): 0.005
- mean plasma concentrations ([4]; total oral doses 0.005-2 mg): 0.17 to 43.9 nM
- mean plasma concentrations ([4]; total oral doses 0.025-0.68 mg): 0.6 to 15 nM
- GABA sIPSC frequency (α7 receptor [5]): 251 % baseline

From patent US20080242688A1, “Method 741” (ASTRAZENECA AB, priority 2007, published 2008)
